# Experimental data reported in patent US20030148925A1, “Insulin formulation for inhalation” (priority 2000, published 2003).
# Details: dog, in vivo
# Description: The objective of this study was to determine the bioavailability of 4 novel insulin dry powder formulations following administration by the inhalation route. Each test formulation was administered to 5 dogs and the plasma insulin and whole blood glucose levels were determined. Comparative bioavailability was assessed against a marketed insulin formulation (E) administered subcutaneously. Inhalation administration was undertaken via a surgically prepared tracheostome to allow direct entry to the bronchiopulmonary region of the lungs.
# The four test materials coded A-D (for inhalation administration), were supplied as spray-dried powder formulations in glass vials, whilst formulation E (for subcutaneous administration) was supplied as a liquid. Formulations A-D were stored in the dark at ambient room temperature, whilst formulation E was stored at +4° C.
# Formulation E (Humulin S) was supplied as a 100 IU/ml solution. The dose required for the pilot phase of the study was 1.5 IU/dog. Due to the small volumes of Humulin S required, this formulation was diluted with sterile water for injection to allow larger volumes of the correct dose level to be administered.
# For the main study, 5 dogs (Animals 2-6) were used. Initially each dog received a subcutaneous dose of insulin (1.5 IU) to provide comparative plasma insulin and whole blood glucose levels. Following a minimum 2-3 day wash-out period, each dog was administered one of the 4 insulin formulations, in a randomised order, by direct inhalation exposure (7.5 IU) to an aerosol bolus delivered via a surgically prepared tracheostome. The remaining 3 insulin formulations were administered in a similar manner at approximately 2 day intervals. The tracheostome was surgically prepared, with the dogs under general anaesthesia, approximately 2 weeks before dosing.
# The administered doses of insulin were derived by analytical determination by subtracting the amount of insulin retained in the dosing device from the total insulin loaded. The actual insulin units delivered are calculated based on the assumption that each milligram of insulin is equivalent to 28.6 units.
# Serial blood samples were obtained on each day of treatment to determine plasma insulin and whole blood glucose levels.
# A linear trapezoidal calculation of the area under the curve (AUC) was used to derive the values from the overall mean insulin blood concentration data.
Substance,AUC Normalised (Relative %),AUC Normalised (relative to the subcutaneous dose of 1.5 units) [uU.min/ml],AUC Per Dose [uU.min/ml],rank of AUC following normalisation to the doses administered
20% Zinc Insulin in Trehalose [Formulation D],(17.0) %,495,2355,highest AUC
95% Zinc Insulin in Trehalose [Formulation C],(6.4) %,188,625,–
Humulin S [Formulation E],(100) %,2916,2916,–
Insulin Without Zinc [Formulation B],(8.0) %,234,773,–
Zinc Insulin [Formulation A],(4.2) %,123,657,–
